PMC5641330, “Prediction of a Therapeutic Dose for Buagafuran, a Potent Anxiolytic Agent by Physiologically Based Pharmacokinetic/Pharmacodynamic Modeling Starting from Pharmacokinetics in Rats and Human” (Frontiers in Pharmacology, 2017)
Like-named read-outs stand apart in the source and are kept apart here.

Assays:
[1] = set-up: method as in Zhang, 1997; Li et al., 2001; Li, 2010; conditions: rat liver microsomes, ref Zhang, 1997, Li et al., 2001, 2010; cited from earlier work
[2] = Clinical plasma PK in healthy volunteers after oral dosing (observed); type: in vivo; conditions: male, human; for AUC(0-t): read-out: AUC0-t Observed; for AUC(0-inf): read-out: AUC0-∞ Observed; for MRT inf: read-out: MRT(0-∞) Observed
Description: The study protocol was approved by the Ethics Committee of Peking Union Medical College Hospital approved (Permission Number: 09103), and the Informed Consent Form was signed by all subjects before the study. PVP formulation of buagafuran was packed into capsules for oral administration. In a study of open-label, randomized, cross-over and dose-ranging design, 12 healthy male Chinese volunteers (aged 22–40 with weighing 55–70 kg) received a single oral dose of buagafuran (30, 60, and 120 mg). Serial blood samples were collected up to 48 h. In a phase I, randomized and multiple oral dose study, 5 healthy male Chinese volunteers (aged 20–31 with weighing 55–73 kg) received once-daily oral dose of 60 mg buagafuran for 7 days. On day 1 and 7, plasma samples were collected at the designed time points. Detailed clinical data was previously reported ([Yang et al., 2011], [2013]).
Pharmacokinetic parameters were determined with a non-compartmental model using WinNonlin v 6.0 (Pharsight Corporation, Mountain View, CA, United States). The area under the compound concentration versus time curve from time zero to the last time point (AUC0-t) and extrapolated to infinity (AUC0-∞) and the peak plasma concentration (Cmax) were calculated.

[3] = test system: male Wistar rats; experiment: Elevated plus-maze (EPM) test in the rat, with sigmoid Emax PK/PD fit; type: in vivo
Description: Anxiolytic activity of buagafuran was evaluated by EPM model. The rat EPM consisted of two open arms (50 cm × 10 cm) and two closed arms (50 cm × 10 cm × 40 cm) extending from the central platform (10 cm × 10 cm), the maze rising from the floor by 50 cm.
Male Wistar rats, weighing between 130 and 160 g, were handled daily for 1 week prior to the study and were fasted for 12 h before experiment. Group I: the treated rats received buagafuran formulation of PVP (2, 4, and 8 mg/kg) via the oral route, while the rats that served as control group received vehicle (PVP). Experiments were carried out 10 min after oral administration of drugs or vehicles. Group II: Rats were evaluated 5, 10, 15, 30, 60, 90, 120, and 180 min after oral treatment with buagafuran (4 mg/kg). During a typical test, place each rat on the center of the maze, facing an open arm, and allowing free exploration of the maze for a 5 min test period. An entry was defined by all four paws enter an arm. The total number of arm entries, and the time spent in each type of arm was recorded. The maze was wiped down with 10% ethanol between tests. All experiments were carried out between 9:00 am and 12:00 am.
The difference between control and treatment group was statistically analyzed by one-way analyses of variance (ANOVA). Differences with probabilities of less than 5% (p < 0.05) were regarded as significant.
The PD Plus module implemented in GastroPlus was used. Based on the parameters (R^2 and Akaike criterion) in PK-PD model simulation, the best-fitting model, Sigmoid Emax model, was employed to fit therapeutic PD response (time spent on the open arms) with the brain concentration profile of buagafuran in rat using the equation 4:
(4) E = E0+ EmaxC^γ/EC50 γ+C^γ.
where C is in ng/mL, E0 is the time spent by the control group in the open arms which is equal to 0.63, Emax is the maximum response, EC50 is the concentration of a compound at which 50% of its maximum response is observed and γ is the Hill coefficient. The set of parameter values for the model was determined by GastroPlus software. GastroPlus simulation was then used to predict the brain concentration profile and PD response profile of buagafuran in human.

[4] = Clearance prediction from incubation with rat liver microsomes; type: in vitro ADME
Description: Drug disappearance t1/2 value measurements in rat and human microsomes were used to determine the in vitro apparent intrinsic clearance value (CLintapp) of buagafuran acquired using Then CLintapp was converted to in vivo intrinsic clearance (CLint).
Rat or human liver microsomal incubation (0.5 mg/mL) was carried out at 37°C in a mixture of 0.5 mL in 0.05 M Tris–HCl buffer (pH 7.4). Buagafuran (2 μM) was added to the incubation system. The addition of NADPH (1 mM) initiated the reaction, then the reaction was incubated for 0, 10, 20, 30, 45, and 60 min. The equal volume of acetonitrile containing the IS (10 ng/mL) was added to stop the reaction. The mixtures were centrifuged at 16000 g for 5 min and the supernatants were determined using LC-MS/MS method.
The natural log (In) of buagafuran concentration versus time was plotted and the slope of the best fit line of was determined by the data (k). This was converted into in vitro t1/2 where t1/2 = In 2/k. CLintapp was calculated by the following equation: […]
Where M is the microsomal protein concentration in the incubation. CLint by liver was calculated from equation 2:
(2) CLint=CLint(app)×mgmicrosome/gliver×liverweight(g)/bodyweight(kg)
Where a value of 45 mg of protein per gram of liver tissue was used for both rat and human, and a liver weight of 40 and 21 g per kg were applied to rat and human, respectively ([Hosea et al., 2009]). […]

[5] = oral, 60 mg, multiple dosing (60 mg once daily, 7 days)/first dosing
[6] = oral, 60 mg, multiple dosing (60 mg once daily, 7 days)/last dosing
[7] = po, 30 mg, oral single dosing 30 mg
[8] = po, 60 mg, oral single dosing 60 mg
[9] = po, 120 mg, oral single dosing 120 mg

CCCCC1=CCC[C@@]2(C)CC[C@@H]3C[C@]12OC3(C)C [buagafuran]
extraction ratio [1]: about 50% | Cmax [2, 5]: 0.0271 µg/mL | AUC(0-t) [2, 5]: 0.0994 µg·h/mL | AUC(0-inf) [2, 5]: 0.113 µg·h/mL | MRT inf [2, 5]: 9.94 h | Tmax ([2]; oral, 60 mg, multiple dosing (60 mg once daily, 7 days)/first dosing, read-out: Tmax Observed): 2 h | Cmax [2, 6]: 0.032 µg/mL | AUC(0-t) [2, 6]: 0.163 µg·h/mL | AUC(0-inf) [2, 6]: 0.231 µg·h/mL | MRT inf [2, 6]: 20.9 h | Tmax ([2]; oral, 60 mg, multiple dosing (60 mg once daily, 7 days)/last dosing, read-out: Tmax Observed): 3 h | Cmax [2, 7]: 0.0195 µg/mL | AUC(0-t) [2, 7]: 0.0476 µg·h/mL | AUC(0-inf) [2, 7]: 0.0549 µg·h/mL | MRT inf [2, 7]: 3.33 h | Tmax ([2]; po, 30 mg, oral single dosing 30 mg, read-out: Tmax Observed): 1 h | Cmax [2, 8]: 0.0398 µg/mL | AUC(0-t) [2, 8]: 0.0924 µg·h/mL | AUC(0-inf) [2, 8]: 0.0954 µg·h/mL | MRT inf [2, 8]: 4.87 h | Tmax ([2]; po, 60 mg, oral single dosing 60 mg, read-out: Tmax Observed): 1 h | Cmax [2, 9]: 0.0816 µg/mL | AUC(0-t) [2, 9]: 0.246 µg·h/mL | AUC(0-inf) [2, 9]: 0.272 µg·h/mL | MRT inf [2, 9]: 5.28 h | Tmax ([2]; po, 120 mg, oral single dosing 120 mg, read-out: Tmax Observed): 1 h | Tmax ([2]; po, oral 30–120 mg, read-out: time to peak plasma concentration (Tmax)): 0.5 to 2 h | time within which activity decreased ([3]; rat EPM, oral 4 mg/kg): ≤ 2 h | time of maximal level of activity ([3]; rat EPM, oral 4 mg/kg, p < 0.01 versus vehicle): 15 min | onset of action ([3]; rat EPM, oral 4 mg/kg, p < 0.05 versus vehicle): ≤ 10 min | total time spent in open arms ([3]; rat EPM, oral 2, 4 and 8 mg/kg, dose-dependent, inverted U-shaped): significantly prolonged | dose of maximum effect ([3]; rat EPM, oral, p < 0.05 versus vehicle): 4 mg/kg | EC50 ([3]; time spent in open arms vs rat brain concentration, direct sigmoidal Emax model): 0.0106 mg/L | CLhep predicted ([4]; from rat liver microsomes, well-stirred model): 1.68 L/h/kg | microsomal CLint at 2 μM ([4]; pH 7.4, rat liver microsomes 0.5 mg/mL, 2 μM, read-out: in vitro CLintapp): 33 µL/min/mg
